Experimental findings from ChEMBL document CHEMBL1201862, “PubChem BioAssay data set” (2004) are described below.

Test systems include MDA-MB-435; NCI-H522; HOP-62; SK-MEL-28; A549; MOLT-4; SW-620; IGROV-1; A498; HT-29; SK-MEL-2; UACC-257; U-251; LOX IMVI; 786-0; HCT-15; HCT-116; KM12; RPMI-8226.
What all share (experiment): DTP human tumour cell line panel, 48 h

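All cell lines were grown in 96-well plates and treated with compound for 48 hours. GI50: concentration for 50% inhibition of growth.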 Active and inactive are the calls of the source. No stated cut-off is given here; in the data, active = GI50 up to about 1.1 µM and inactive = higher.

What is called GI50 is the concentration that inhibits growth by half. For the molecule `COC(=O)c1ccccc1C1CN=NC12Cc1cc(C)c(C)cc1C2=O` (stereo not drawn), the GI50 with MDA-MB-435 was 33.4 µM (inactive); in the assay on NCI-H522 it was 14.3 µM (inactive); in the assay on HOP-62 it was 78 µM (inactive); in the assay on SK-MEL-28 it was 87.7 µM (inactive); in the assay with A549, 37.8 µM (inactive); in the assay with MOLT-4, 34.3 µM (inactive). Moreover, the GI50 in the assay with SW-620 is 51.6 µM (inactive); with IGROV-1, 55.2 µM (inactive); in the assay with A498, 25.8 µM (inactive); in the assay with HT-29, 29.4 µM (inactive); in the assay with SK-MEL-2, 49.7 µM (inactive); with UACC-257, 14.5 µM (inactive). Further, the GI50 is 41.6 µM (inactive) in the assay on U-251; 20.4 µM (inactive) with LOX IMVI; 63.1 µM (inactive) in the assay with 786-0; 32.7 µM in the assay with HCT-15; 33.4 µM (inactive) in the assay on HCT-116; 29.7 µM (inactive) with KM12.

As to `O=c1c2ccccc2nc(N/N=C/c2ccc(Cl)cc2)n1-c1ccccc1`, the GI50 in the assay with MDA-MB-435 was > 100 µM (inactive); in the assay with NCI-H522, 67 µM (inactive); in the assay with HOP-62, 38.1 µM (inactive); in the assay on SK-MEL-28, > 100 µM (inactive); in the assay with A549, > 100 µM (inactive); with MOLT-4 it was > 100 µM (inactive). The GI50 was > 100 µM (inactive) in the assay on SW-620; > 100 µM (inactive) in the assay on IGROV-1; > 100 µM (inactive) in the assay on A498; > 100 µM (inactive) in the assay on HT-29; 17.5 µM (inactive) in the assay on SK-MEL-2; > 100 µM (inactive) in the assay on UACC-257. Moreover, the GI50 in the assay with U-251 was 46.6 µM (inactive); in the assay on LOX IMVI, > 100 µM (inactive); in the assay with 786-0 it was > 100 µM (inactive); in the assay with HCT-15 it was 89.9 µM; in the assay on HCT-116, > 100 µM (inactive).

As for `Cc1ccc(-n2cc(-c3ccc(Cl)cc3)c3c2N=CN2N=C(c4cccs4)NC32)cc1` (stereo not drawn), the GI50 with MDA-MB-435 is 38.7 µM (inactive); with NCI-H522, 21.6 µM (inactive); in the assay with HOP-62 it was 15.7 µM (inactive); in the assay on SK-MEL-28, > 100 µM (inactive); in the assay on A549, 21.9 µM (inactive); in the assay with SW-620 it was 14.4 µM (inactive). Further, the GI50 with IGROV-1 is 14.2 µM (inactive); with A498 it was 14.7 µM (inactive); with HT-29 it was 23 µM (inactive); in the assay on SK-MEL-2 it was 13.1 µM (inactive); in the assay on UACC-257, 38.9 µM (inactive); in the assay on U-251 it was 4.81 µM (inactive). For the same molecule, the GI50 in the assay on LOX IMVI is 15.7 µM (inactive); in the assay with 786-0, 4.28 µM (inactive); in the assay with HCT-15, 51.8 µM; in the assay with HCT-116, 5.13 µM (inactive).

Regarding `O=C1NC(c2ccc3ccccc3c2)Nc2ccccc21` (stereo not drawn), the GI50 in the assay with MDA-MB-435 was 3.12 µM (inactive); in the assay with HOP-62, 41 µM (inactive); in the assay on SK-MEL-28, > 100 µM (inactive); with SW-620, 43.8 µM (inactive); in the assay with IGROV-1, 23.6 µM (inactive); with A498, 56 µM (inactive). The GI50 is 29.9 µM (inactive) with RPMI-8226; 24.8 µM (inactive) in the assay with HT-29; 35.9 µM (inactive) in the assay with SK-MEL-2; 57.9 µM (inactive) in the assay on UACC-257; > 100 µM (inactive) in the assay on U-251; 58.7 µM (inactive) with LOX IMVI. In addition, the GI50 with 786-0 is 45.7 µM (inactive); in the assay with HCT-15, 14.8 µM; in the assay with HCT-116 it was 33.1 µM (inactive); in the assay with KM12, 21.1 µM (inactive).

Consider `N=C(N)N/N=C/c1c(-c2ccc(Cl)cc2)nc2sc(Cl)cn12`, for which the GI50 with MDA-MB-435 is 1.3 µM (inactive); in the assay with NCI-H522 it was 2.04 µM (inactive); in the assay with HOP-62, 1.85 µM (inactive); in the assay with SK-MEL-28 it was 1.81 µM (inactive); in the assay with A549, 1.7 µM (inactive); in the assay with MOLT-4, 0.504 µM (active). In addition, the concentration for 50% growth inhibition (GI50) was 1.09 µM (active) with SW-620; 0.755 µM (active) in the assay on IGROV-1; 1.74 µM (inactive) with A498; 0.646 µM (active) in the assay with HT-29; 1.71 µM (inactive) with SK-MEL-2; 1.8 µM (inactive) in the assay with UACC-257. In addition, the 50% growth inhibitory concentration (GI50) in the assay on U-251 was 0.658 µM (active); with LOX IMVI, 0.169 µM (active); in the assay with 786-0, 1.58 µM (inactive); in the assay with HCT-15 it was 1.36 µM; in the assay with HCT-116, 0.43 µM (active); with KM12, 1.03 µM (active).

In the case of `CCC1(O)CC(OC2CC(N(C)C)C(OC3CC(O)C(OC4CCC(=O)C(C)O4)C(C)O3)C(C)O2)c2c(O)c3c(c(O)c2C1C(=O)OC)C(=O)c1cccc(O)c1C3=O` (stereo not drawn), the GI50 in the assay with MDA-MB-435 was 0.0067 µM (active); in the assay on NCI-H522 it was 0.00385 µM (active); with HOP-62, 0.0106 µM (active); with SK-MEL-28, 0.00995 µM (active); in the assay on A549, 0.00339 µM (active); in the assay on MOLT-4, 0.00154 µM (active). Also, the 50% growth inhibitory concentration (GI50) in the assay on SW-620 was 0.00171 µM (active); in the assay on IGROV-1, 0.00178 µM (active); in the assay on RPMI-8226, 0.00181 µM (active); in the assay with HT-29 it was 0.00445 µM (active); with SK-MEL-2, 0.0103 µM (active); in the assay on UACC-257, 0.0059 µM (active). Further, the concentration for 50% growth inhibition (GI50) with U-251 was 0.0028 µM (active); with LOX IMVI, 0.00184 µM (active); in the assay with 786-0 it was 0.0016 µM (active); in the assay on HCT-15, 0.00719 µM; in the assay on HCT-116 it was 0.000396 µM (active); in the assay on KM12, 0.00344 µM (active).

As for `Cn1ccc(C(=O)NCCCCCNC(=O)c2ccn(C)c(=O)c2O)c(O)c1=O`, the GI50 in the assay on MDA-MB-435, in the assay with NCI-H522, with SK-MEL-28, with A549, in the assay with SW-620 and with A498 was > 100 µM (inactive) in each case. Further, the GI50 with HT-29, in the assay on SK-MEL-2, in the assay on UACC-257, in the assay on U-251, in the assay on LOX IMVI and with 786-0 was > 100 µM (inactive) throughout. Moreover, the concentration for 50% growth inhibition (GI50) was > 100 µM in the assay with HCT-15, > 100 µM (inactive) in the assay with HCT-116 and > 100 µM (inactive) with KM12.

`Nn1c(=O)[nH]c2ncn(Cc3ccccc3)c2c1=O`: the GI50 in the assay on MDA-MB-435, in the assay with NCI-H522, in the assay on HOP-62, in the assay on SK-MEL-28, in the assay with A549 and in the assay with MOLT-4 was > 100 µM (inactive) throughout. Moreover, the GI50 with SW-620, in the assay with IGROV-1, in the assay with A498, in the assay on HT-29, in the assay on SK-MEL-2 and with UACC-257 was > 100 µM (inactive) each time. Also, the GI50 with U-251 was > 100 µM (inactive); in the assay with 786-0, > 100 µM (inactive); with HCT-15, > 100 µM; in the assay with HCT-116 it was > 100 µM (inactive); with KM12 it was > 100 µM (inactive).

Take `Cc1cc2nc3c(C#N)c4c(c(Nc5ccc(F)cc5)n3c2cc1C)CCC4`: the GI50 is > 100 µM (inactive) in the assay on MDA-MB-435; 95.5 µM (inactive) in the assay on NCI-H522; > 100 µM (inactive) in the assay with HOP-62; > 100 µM (inactive) in the assay with SK-MEL-28; > 100 µM (inactive) in the assay with A549; > 100 µM (inactive) in the assay on MOLT-4. Besides, the GI50 with SW-620, in the assay on IGROV-1, in the assay on RPMI-8226, in the assay with HT-29, in the assay on SK-MEL-2 and in the assay with UACC-257 was > 100 µM (inactive) throughout. For the same molecule, the GI50 is > 100 µM (inactive) with U-251; > 100 µM (inactive) in the assay with LOX IMVI; > 100 µM (inactive) in the assay on 786-0; > 100 µM in the assay with HCT-15; > 100 µM (inactive) with HCT-116; > 100 µM (inactive) with KM12.

With `O=C(NC1(C(=O)NNc2nnc(-c3ccccc3)c(-c3ccccc3)n2)C(c2ccccc2)C(c2ccccc2)=NN1c1ccccc1)c1ccccc1` (stereo not drawn), the GI50 with MDA-MB-435, in the assay on NCI-H522, in the assay on HOP-62, in the assay with A549, in the assay with MOLT-4 and in the assay on SW-620 was > 100 µM (inactive) in each case. Moreover, the GI50 in the assay on A498, in the assay on HT-29, in the assay on SK-MEL-2, with UACC-257, with U-251 and in the assay on 786-0 was > 100 µM (inactive) throughout. For the same molecule, the GI50 was > 100 µM with HCT-15, > 100 µM (inactive) in the assay on HCT-116 and > 100 µM (inactive) in the assay on KM12.

With `Nc1nc(N)nc(-c2cnccn2)n1`, the GI50 with MDA-MB-435, in the assay on NCI-H522, in the assay with HOP-62, in the assay on SK-MEL-28, in the assay with A549 and in the assay with MOLT-4 was > 100 µM (inactive) in each case. The GI50 in the assay with SW-620, with IGROV-1, in the assay with A498, with SK-MEL-2, in the assay on UACC-257 and with U-251 was > 100 µM (inactive) in each case. Further, the GI50 was > 100 µM (inactive) in the assay on LOX IMVI; > 100 µM (inactive) in the assay on 786-0; > 100 µM in the assay with HCT-15; > 100 µM (inactive) in the assay with HCT-116; > 100 µM (inactive) in the assay with KM12.

In the case of `COc1cc(S(=O)(=O)Nc2nc(-c3ccc(N4C(=O)CSC4c4cccs4)cc3)cs2)ccc1Cl` (stereo not drawn), the GI50 in the assay on MDA-MB-435 is > 100 µM (inactive); in the assay on NCI-H522, 30.9 µM (inactive); with HOP-62, > 100 µM (inactive); with SK-MEL-28 it was > 100 µM (inactive); in the assay on A549, > 100 µM (inactive); with MOLT-4, 22.1 µM (inactive). In addition, the GI50 with SW-620 is 40.8 µM (inactive); in the assay with IGROV-1, 34.3 µM (inactive); with A498, > 100 µM (inactive); with HT-29 it was > 100 µM (inactive); in the assay with SK-MEL-2 it was 57.5 µM (inactive); in the assay on UACC-257 it was 71 µM (inactive). Also, the GI50 in the assay with U-251 was > 100 µM (inactive); in the assay on LOX IMVI, 21.8 µM (inactive); in the assay on 786-0, 81.1 µM (inactive); in the assay on HCT-15, 22.8 µM; with HCT-116 it was 45.2 µM (inactive); with KM12, 75.5 µM (inactive).
